Laboratory results published in patent publication EP1165610B1, “PEPTIDE USEFUL IN TREATING MULTIPLE SCLEROSIS AND A PHARMACEUTICAL COMPOSITION COMPRISING THE SAME” (TECNOGEN S.C.P.A., priority 1999, dated 2006).
Ends that are not written are not given here.

System: SJL female mice
Experiment: In vivo activity in experimental allergic encephalitis (EAE) model, pre-immunization with peptide before EAE induction
Conditions: for Incidence of EAE: number of mice with clinical EAE/number of mice immunized, after two weeks EAE induced with 300 nmoles P81-100 in CFA plus pertussis toxin, observed day 9 up to 60
Method: The in vivo activity of the peptide compounds of formula (I) (SEQ ID NO: 1), were evaluated on four groups of SJL female mice, used at the age of 6-15 weeks. This strain of mice has been genetically selected for its ability to develop experimental allergic encephalitis (EAE).
Two groups of mice have been immunized intraperitoneally with the peptide compound of formula (I) (SEQ ID NO: 1) (300 nmoles), dissolved in 0.05 ml of physiological solution and then emulsified with 0.05 ml of incomplete Freund's adjuvant (IFA) (Sigma, Italy).
As positive and negative control, P81-100 (SEQ ID NO: 5) and IFA alone were used respectively.
After two weeks EAE was induced in all groups by challenge with 300 nmoles of P81-100 (SEQ ID NO: 5) dissolved in 0.1 ml of physiological solution and then emulsified with 0.1 ml of complete Freund's adjuvant (CFA) (Sigma, Italy).
Pertussis toxin (200 ng) (Fluka Chemie AG, Switzerland) was injected intravenously at the time of immunization and 2 days later. The role of pertussis toxin is to enhance the migration of autoreactive lymphocytes through the encephalic barrier (Bernard, et al., "J. Immunol." 114, 1537-1540, 1975).
Mice were observed daily beginning at day 9 up to 60 for clinical signs of EAE and were graded according to the following clinical scale: 1, limp tail; 2, partial hind limp paralysis; 3, complete hind limp paralysis; 4, hind and front limp paralysis; 5, moribund (Broke S. et al., "Nature", 379, 343-346, 1996). Grade 5 mice were euthanized.

[1] = 300 nmoles intraperitoneally in IFA

| Molecule | Day of on-set (mean day of onset ± SD, 300 nmoles intraperitoneally in IFA, after two weeks EAE induced with 300 nmoles P81-100 in CFA) | Severity (mean severity of sick mice ± SD, clinical scale 1-5, 300 nmoles intraperitoneally in IFA, after two weeks EAE induced with 300 nmoles P81-100 in CFA) | Incidence of EAE [1] | development of EAE (result in words, summary of Table 1, SJL mice treated with peptide before EAE induction) |
| --- | --- | --- | --- | --- |
| CC[C@H](C)[C@H](NC(=O)[C@H](CC(N)=O)NC(=O)[C@H](CCCCN)NC(=O)[C@H](Cc1ccccc1)NC(=O)[C@H](Cc1ccccc1)NC(=O)[C@H](Cc1c[nH]cn1)NC(=O)[C@@H](NC(=O)[C@@H](NC(=O)[C@@H]1CCCN1C(=O)[C@@H](N)CC(N)=O)C(C)C)C(C)C)C(=O)N[C@H](C(=O)N[C@H](C(=O)N1CCC[C@H]1C(=O)N[C@@H](CCCNC(=N)N)C(=O)N[C@H](C(=O)N1CCC[C@H]1C(=O)N1CCC[C@H]1C(=O)N1CCC[C@H]1C(=O)N[C@@H](CO)C(=O)N[C@@H](CCC(N)=O)C(=O)O)[C@@H](C)O)[C@@H](C)O)C(C)C [Peptide P81-100] | 33±4.24 | 1.0±0 | 2/17 | – |
| NGVGHGFGNGVGPGTGPGSG [Peptide I] | – | – | 0/17 | didn't develop EAE |
